{
  "source": "patent US11191790B2",
  "about": "“Biologically pure Faecalibacterium butyricigenerans strain, composition including the same and method for treating ulcerative colitis” (BGI SHENZHEN, priority 2016, dated 2021)",
  "system": "UC modeled mice (DSS-induced ulcerative colitis)",
  "test": "In vivo experiment in DSS-induced UC modeled mice",
  "design": "species or system C57bl/6 mice",
  "procedure": "With administration of AF52-21, saline or a positive drug, the therapeutic effect of Faecalibacterium butyricigenerans AF52-21 on the UC modeled mice was evaluated by observing body weight, mortality, fecal traits, occult/visual blood in stool, colon length, disease and activity index (DAI) and pathological parameters.\n8 week-old C57bl/6 mice weighted 21 g±1 g in SPF grade were adaptively fed for one week. Then, 2% sodium dextran sulfate (DSS) was administered to the mice for 7 days to induce the UC modeled mice.\nA total of 48 mice were randomly divided into four groups, with 12 mice in each group. The groups were as follows:\nGroup I: control group—normal mice without DSS induction;\nGroup II: UC modeled group—saline gavage after DSS induction;\nGroup III: UC treatment group—AF52-21 treatment after DSS induction;\nGroup IV: UC treatment group—positive drug (salicylazosulfapyridine, SASP) treatment after DSS induction.\nUC modeled group: gavage with saline (0.85% NaCl).\nAF52-21-treated group: administration with cultured AF52-21 in a stationary phase in a bacterial concentration of about 10^8 cfu/ml.\nSASP-treated group: administration with 0.02 g/mL of aqueous SASP solution.\nThe mice in all groups were daily observed for food intake, spontaneous activities, body weight, fecal traits and occult/visual blood in stool. After DSS induction for 7 days, mice were treated according to the administration scheme in 4.3 for 2 weeks by daily gavage of 200 μL/mouse. After 14 days, mice in all groups were sacrificed for blood collection, colon collection for photographing and length-measuring, and collection of other organs for weighing. The colon was then stored in paraformaldehyde in a […] refrigerator.\nThe mice were given individual scores according to body weight, fecal traits and occult/visual blood in stool. The scoring criteria are as follows (Table 4).\nThe DAI is scored as the sum of the scores for body weight, fecal traits and occult blood/visual blood in stool.",
  "key": {"[1]": {"conditions": "daily gavage 200 μL/mouse, AF52-21 about 10^8 cfu/ml, SASP 0.02 g/mL"}, "[2]": {"conditions": "ratio of organ weight to body weight, x ± SD, after 14 days of treatment"}, "[3]": {"conditions": "sum of scores for body weight, fecal traits, occult/visual blood in stool, daily gavage 200 μL/mouse"}},
  "data": [
    {"smiles": "O=C(O)c1cc(/N=N/c2ccc(S(=O)(=O)Nc3ccccn3)cc2)ccc1O", "note": "[SASP, salicylazosulfapyridine]", "values": [
      {"measurement": "Mice died during the entire experiment", "setting": "12 mice in each group, 5 mice died in the UC modeled group", "value": 2, "unit": "mice"},
      {"measurement": "Body weight, DSS induction at Day 7", "setting": "UC modeled mice, after 7 days 2% DSS, before treatment", "value": "28.52 ± 3.12", "unit": "g"},
      {"measurement": "Body weight, DSS induction at Day 0", "setting": "UC modeled mice, before DSS induction and before treatment (baseline of the group)", "value": "30.12 ± 2.25", "unit": "g"},
      {"measurement": "colon length", "setting": "after 14 days of treatment, UC modeled group 6.11 ± 0.90", "value": "6.54 ± 0.71"},
      {"measurement": "Body weight, Treatment at Day 1", "setting": "[1]", "value": "26.51 ± 3.31", "unit": "g"},
      {"measurement": "Body weight, Treatment at Day 7", "setting": "[1]", "value": "27.60 ± 3.46", "unit": "g"},
      {"measurement": "Body weight, Treatment at Day 14", "setting": "[1]", "value": "29.98 ± 3.32", "unit": "g"},
      {"measurement": "Weight gain/decrease rate", "setting": "decrease rate of body weight, UC modeled group 8 ± 0.8% decrease", "value": "0.4 ± 0.2% (decrease rate)"},
      {"measurement": "Colon histopathology", "setting": "histological sections of mouse intestinal mucosa, FIG. 5, compared with the UC modeled group", "value": "reduced thickness of colon wall; and reduced number of inflammatory cells infiltrating in submucosa"},
      {"measurement": "Colon index", "setting": "[2]", "value": "9.88 ± 2.76", "unit": "mg/g"},
      {"measurement": "Kidney index", "setting": "[2]", "value": "13.24 ± 1.74", "unit": "mg/g"},
      {"measurement": "Liver index", "setting": "[2]", "value": "41.56 ± 6.04", "unit": "mg/g"},
      {"measurement": "Spleen index", "setting": "[2]", "value": "6.24 ± 3.71", "unit": "mg/g"},
      {"measurement": "Thymus index", "setting": "[2]", "value": "1.10 ± 0.39", "unit": "mg/g"},
      {"measurement": "DAI score, DSS induction for 7 days", "setting": "sum of scores for body weight, fecal traits, occult/visual blood in stool, before treatment", "value": "7.70 ± 2.85"},
      {"measurement": "DAI score, Treatment for 7 days", "setting": "[3]", "value": "5.89 ± 2.21"},
      {"measurement": "DAI score, Treatment for 14 days", "setting": "[3]", "value": "3.98 ± 1.38"}
    ]}
  ]
}
